Experiment [1] is described as follows: Inhibition of Mycobacterium tuberculosis Zmp1.
A short description of experiment [2]: Inhibition of Mycobacterium tuberculosis FBA.
Experiment [3] has as its system Mycobacterium tuberculosis. The experiment in a line: Antibacterial activity against Mycobacterium tuberculosis. It counts as functional.
Experiment [4] has as its system Mycobacterium tuberculosis. The experiment in a line: Antibacterial activity against aged non-growing Mycobacterium tuberculosis. The format is functional.
Experiment [5] is described as follows: Inhibition of Mycobacterium tuberculosis MetAP1a.
Experiment [6] is described as follows: Inhibition of Mycobacterium tuberculosis MetAP1c.
The target of experiment [7] is Methionine aminopeptidase 1 (Homo sapiens, UniProt P53582). The experiment in a line: Inhibition of human MetAP1.
Experiment [8] has as its target Methionine aminopeptidase 2 (Homo sapiens, UniProt P50579). The experiment in a line: Inhibition of human MetAP2.
A short description of experiment [9]: Inhibition of bacterial New Delhi metallo-beta-lactamase 1. Also noted: species or system Bacteria.
Experiment [10] is described as follows: Inhibition of bacterial VIM-2. Also noted: species or system Bacteria.
The nature of experiment [11]: Inhibition of human zinc metalloprotease.
For experiment [12], the target named is Botulinum neurotoxin type A (Clostridium botulinum, UniProt P0DPI0). Description: Inhibition of Botulinum neurotoxins/A.

Broadly, the IC50 is the concentration needed to halve the response being measured. A low value points to higher potency. By MIC is commonly meant the smallest concentration in the dilution series that meets the test's criterion for growth inhibition. Low readings indicate greater potency, high ones weaker potency.

Values after ≈ are worked out from the molar mass of the structure shown.

Chain of Botulinum neurotoxin type A (P0DPI0 2-448 limits assumed): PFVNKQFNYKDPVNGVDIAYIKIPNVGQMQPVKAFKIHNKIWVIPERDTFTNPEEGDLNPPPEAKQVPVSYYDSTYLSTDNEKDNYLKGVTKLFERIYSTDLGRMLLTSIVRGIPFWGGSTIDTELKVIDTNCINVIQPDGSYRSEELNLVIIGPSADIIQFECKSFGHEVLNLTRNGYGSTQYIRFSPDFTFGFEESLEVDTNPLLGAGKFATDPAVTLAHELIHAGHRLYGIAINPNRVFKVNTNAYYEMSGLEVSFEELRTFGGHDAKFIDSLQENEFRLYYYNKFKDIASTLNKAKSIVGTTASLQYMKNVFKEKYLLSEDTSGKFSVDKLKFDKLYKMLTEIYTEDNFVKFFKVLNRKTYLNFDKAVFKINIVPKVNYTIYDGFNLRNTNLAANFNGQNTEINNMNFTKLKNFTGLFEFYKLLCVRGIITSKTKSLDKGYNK
Chain of Methionine aminopeptidase 2 (P50579 whole entry): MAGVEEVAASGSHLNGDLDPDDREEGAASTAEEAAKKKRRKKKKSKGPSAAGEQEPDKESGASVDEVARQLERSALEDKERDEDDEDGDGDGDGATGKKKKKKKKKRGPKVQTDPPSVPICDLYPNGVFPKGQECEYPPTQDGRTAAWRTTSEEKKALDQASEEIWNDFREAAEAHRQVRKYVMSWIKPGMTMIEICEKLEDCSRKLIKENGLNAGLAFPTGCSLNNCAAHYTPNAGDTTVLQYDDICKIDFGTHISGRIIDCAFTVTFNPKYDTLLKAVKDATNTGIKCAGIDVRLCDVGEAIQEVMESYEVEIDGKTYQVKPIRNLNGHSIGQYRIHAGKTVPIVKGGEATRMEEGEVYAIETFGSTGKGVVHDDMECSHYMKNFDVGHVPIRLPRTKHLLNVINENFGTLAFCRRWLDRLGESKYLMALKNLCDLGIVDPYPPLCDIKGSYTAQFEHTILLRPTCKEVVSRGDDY

With `O=C(O)c1ccc2cccc(O)c2n1`, the figures for the IC50 in experiment [1] and in [2] were more than 10 µM and 10 µM, respectively.
For `Oc1c(Br)cc(Cl)c2cccnc12`, the MIC turned out to be 19.3 µM (≈ 5 µg/mL) in experiment [3] and 2.51 µM (≈ 0.649 µg/mL) in experiment [4]. In addition, the half-maximal inhibitory concentration (IC50) in experiment [5] was 5.44 µM; in experiment [6], 4.92 µM; in [7], 105 µM; in experiment [8] it was 112 µM.
As for `O=C(O)c1ccc2cccnc2c1O`, the results for the IC50 in [9] and in [10] were 0.76 µM and 0.74 µM, respectively.
With `O=C(NOCc1ccccc1)c1ccc2cccc(O)c2n1`, the IC50 in experiment [1] is 0.011 µM; in [11] it was not below 1 µM.
In [12], `O=S(=O)(NC(c1cccc(F)c1)c1cc(Cl)c2cccnc2c1O)c1ccccc1` (stereo not drawn) returned an IC50 of 5.8 µM.
